Columns and labels:
Type in all cases: cell-based
[1] = tested on: Normal human neonatal epidermal keratinocytes (NHEK); experiment: Epidermal keratinocyte proliferation promotive action test (MTT); conditions: 3 days, A/B×100 vs no sample
Method: Normal human neonatal epidermal keratinocytes (NHEK) were cultured using normal human epidermal keratinocyte growth medium (KGM), and then the cells were collected by a trypsin treatment. The collected cells were diluted with KGM to a cell density of 3.0×10^4 cells/mL, then seeded with 100 μL per well on a collagen-coated 96-well plate, and cultured overnight. After the culturing was completed, 100 μL of the test sample (Sample 1, see Table 12 below for the final concentration) dissolved in KGM was added to each well, and culturing was performed for 3 days. As a control, culturing was performed in the same manner using KGM to which no sample was added.
The epidermal keratinocyte proliferation promotive action was measured using the MTT assay method. After culturing for 3 days, the medium was removed, and 100 μL of MTT dissolved at a final concentration of 0.4 mg/mL in PBS(−) buffer solution was added to each well. […] After extraction, the absorbance at a wavelength of 570 nm was measured. At the same time, the absorbance at a wavelength of 650 nm was measured as turbidity, and the difference between the two was determined as the production amount of blue formazan. From the obtained results, the epidermal keratinocyte proliferation promotion rate (%) was calculated using the following equation. […]

[2] = tested on: Mouse macrophage cells (RAW264.7); experiment: Nitric oxide (NO) production suppressive action test; conditions: RAW264.7, LPS 1 μg/mL, 48 hours
Method: Mouse macrophage cells (RAW264.7) were cultured using Dulbecco's modified Eagle's medium (DMEM) containing 10% FBS, and then the cells were collected using a cell scraper. The collected cells were diluted with phenol red-free DMEM containing 10% FBS to a cell density of 3.0×10^6 cells/mL, then seeded with 100 μL per well in a 96-well plate, and cultured for 4 hours.
After culturing, the medium was removed, 100 μL of the test sample (Sample 1, see Table 26 below for final concentration) dissolved in phenol red-free DMEM containing DMSO at a final concentration of 0.5% and 10% FBS was added to each well, 100 μL of lipopolysaccharide (LPS, final concentration 1 μg/mL, E. coli 0111:B4, available from DIFCO) dissolved in phenol red-free DMEM containing 10% FBS was added, and culturing was performed for 48 hours. As a control, the LPS process was performed in the same manner using, as substitute for the test sample solution, phenol red-free DMEM containing DMSO at a final concentration of 0.5% and 10% FBS to which no sample was added.
The production amount of nitric oxide (NO) was measured using the amount of nitrite ions ([…]) as an index. After the culturing was completed, the same amount of Griess reagent (5 mass % phosphoric acid solution containing 1 mass % sulfanilamide and 0.1 mass % N-1-naphthyl ethylendiamine dihydrochloride) as the culture supernatant was added to the culture solution in each well and reacted for 10 minutes at room temperature. After the reaction, the absorbance at a wavelength of 540 nm was measured. The nitric oxide (NO) production suppression rate (%) was calculated by the following equation based on the nitric oxide (NO) production amount when no sample was added (control).
Terms in the equation represent the following respective ones. • A: NO amount with test sample addition • B: NO amount […]

[3] = tested on: Rat basophil leukemia cells (RBL-2H3); experiment: Hexosaminidase release suppressive action test; conditions: 500 μmol/L; RBL-2H3, DNP-specific IgE / DNP-BSA
Method: Rat basophil leukemia cells (RBL-2H3) were cultured using spinner modified Eagle's minimum essential medium (S-MEM) containing 15% FBS, and then the cells were collected by a trypsin treatment. The collected cells were diluted with S-MEM containing 15% FBS to a cell density of […], DNP-specific IgE was added to a final concentration of 0.5 μg/mL, and the cells were seeded with 100 μL per well in a 96-well plate and cultured overnight.
After culturing, the medium was removed and the cells were washed twice with 100 μL of Shiraganian buffer solution. […]
After the reaction was completed, 250 μL of 0.1 mol/L Na2CO3/NaHCO3 was added to each well, the absorbance at wavelengths of 415 nm and 650 nm was measured, and the value obtained by subtracting the absorbance at 650 nm from the absorbance at 415 nm was adopted as the corrected value. From the obtained measurement results, the hexosaminidase release suppression rate (%) was calculated using the following equation.
Terms in the equation represent the following respective ones. • A: Absorbance at wavelength 415-650 nm without sample addition • B: Absorbance at wavelength 415-650 nm with test sample addition

| SMILES | Epidermal keratinocyte proliferation promotion rate ([1]; 25 μmol/L) | Epidermal keratinocyte proliferation promotion rate ([1]; 100 μmol/L) | NO production suppression rate ([2]; 31.2 μmol/L) | NO production suppression rate ([2]; 125 μmol/L) | NO production suppression rate ([2]; 500 μmol/L) | Hexosaminidase release suppression rate [3] |
| --- | --- | --- | --- | --- | --- | --- |
| O=C(O)CCc1ccc(O)c(O)c1 [Sample 1, 3,4-Dihydroxyhydrocinnamic acid] | 138.3% | 152.1% | 14.9% | 49.4% | 77.8% | – |
| O=C(O)CCc1ccc(O)cc1 [Sample 2, 3-(4-Hydroxyphenyl)propionic acid] | – | – | – | – | – | 19.3% |

Source: US20240252456A1, “ORAL COMPOSITION, SKIN COSMETIC AND HAIR COSMETIC” (MARUZEN PHARMACEUTICALS CO., LTD., priority 2021, published 2024)
